“And” between values parts separate entries of the source, which are not always exact repeats. Equal entries are not always repeated.
Key:
[1] = target: liver fatty acid binding protein (L-FABP); design: method as in Yang et al. 2020; conditions: ref Yang et al. 2020, cited from earlier work; for Kd: read-out: Kd (μM), L-FABP binding affinity
zebrafish embryos = conditions: for pericardial oedemata, Mean / spinal curvature, Mean / tail dysplasia, Mean: 5μM through 120 hpf, malformation rate; for Mortality (%): 5 µM, exposure through 120 hpf
zebrafish larvae [2] = assay: Bioconcentration factors (BCF) of PFAS in zebrafish larvae; conditions: zebrafish larvae; for BCF 0.5µM: 0.5 µM exposure; for BCF 0.5µM / BCF 5µM: 120 hpf, three replicates; for BCF 5µM: 5 µM exposure
Outline: (§1)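 Zebrafish embryos collected within 1 h post-spawning were exposed individually to each PFAS in facility water with DMSO controls, medium renewed every 24 h from 24 to 96 hpf. Live hatched larvae collected at 120 hpf, wet-weighed, extracted with dichloromethane/methanol and analysed by UHPLC–high-resolution MS against mass-labelled standards.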

[3] = as above; conditions: zebrafish (Danio rerio), whole larvae, other: immersion in exposure medium, 5 µM
Outline: as §1

zebrafish larvae [4] = assay: Nontargeted analysis of PFAS metabolites in zebrafish larvae (high-resolution MS)
Method: Zebrafish embryos were collected immediately after spawning, within 1 h, and subsequently transferred to 24-well plates with 1mL of facility water ( 0.036g sea salt, 0.15g sodium bicarbonate in 2L of reverse osmosis water). […] Three well replicates on the same plate were conducted for each concentration of individual chemical. […] Seven batches of experiments were performed to test all 74 PFAS. DMSO controls were incorporated in each batch of exposure experiments. Three replicates were performed for each treatment group, and 20 embryos were used for each replicate. […] For daily replenishment, 2.5mL of old exposure medium were replaced with freshly prepared medium every 24 h from 24 to 96 h post fertilization (hpf). Hatched or dead embryo numbers were recorded every 24 hpf, after which dead embryos were discarded from the growth media. Dead embryos or unhatched embryos were not used for PFAS measurement because the metabolism of PFAS might have been impacted. Zebrafish larvae collection occurred at 120 hpf. First, the larvae were anesthetized by cooling the plate in ice water (0–4°C) for ∼20 min . Then 8–15 larvae in each well were transferred into 1.5-mL tubes. Exposure media was carefully removed, and then the larvae were weighed (wet weight) after blotting excess water with a paper towel. […] Samples were stored at −80 °C until further chemical analysis was performed. Survival rate and hatching rate were calculated by summarizing all the documented data from the whole treatment duration. […] The exposure experiment of PFOSA was repeated using the same procedure as described above.
Each sample was spiked with 2μL of 0.2μg/mL mass-labeled PFAS mixture. Following this, 500μL of dichloromethane/methanol (2:1, vol/vol) was added to each sample for PFAS extraction. Larvae were then homogenized via ultrasonic probe, followed by 30 min of shaking and 30 min of sonication. Each sample was centrifuged at 14,000×g for 5 min, after which the supernatant was transferred to new tubes. Extraction was repeated once and the two supernatants were combined, evaporated under nitrogen flow, and reconstituted in 200μL of methanol for MS analysis.
Three microliters of each zebrafish extract was applied to a C18 column ( 1.5μm; 2.1mm×50mm; Thermo Scientific) and analyzed using a Vanquish ultra-HPLC system (Thermo Fisher Scientific) coupled to a Q Exactive high-resolution mass spectrometer (Thermo Fisher Scientific). The sampler and column compartments were maintained at 4°C and 40°C, respectively. The aqueous mobile phase solution (A) consisted of water, whereas the organic mobile phase solution (B) consisted of acetonitrile. […] MS data was acquired in full scan mode (100–1000 m/z, 70,000 mass resolution, 3×10^6 maximum ions collected per 100 ms), and tandem MS (MS/MS) data was recorded by all-ion fragmentation (AIF) mode. Negative and positive ion modes were carried out simultaneously at a 10-min method duration. […] An overview of the analyses conducted on the various PFAS is available in Table S2.
Nontargeted data analysis was accomplished with R scripts that are available on Github (https://github.com/huiUofT/PFASmetabolite). […] The peak features were matched across samples with a mass tolerance of 2.5 ppm and a RT window of 20 s, after RT adjustment. The ratio of abundances of each feature in treatment groups relative to the control group (DMSO) was calculated. The p -values of the difference between two groups were determined by student’s t -tests.

soil microcosms = test system: soil microcosms; design: method as in Mejia-Avendaño et al. 2016; conditions: ref Mejia-Avendaño et al. 2016; cited from earlier work
zebrafish larvae [5] = assay: Identification of taurine conjugates by the DIPIC-Frag method in zebrafish larvae; assay type: in vivo, Danio rerio; conditions: among 74 PFAS
Excerpt: To identify the taurine conjugates in zebrafish larvae exposed to PFAS, we used the data-independent precursor isolation and characteristic fragment (DIPIC-Frag) method developed in previous studies ([Peng et al. 2015], [2016]) to enhance the coverage inspired by the detection of the characteristic fragment from taurine conjugates ( [taurine-H]^− , m/z 124.0063). Then, the taurine fragment peak was extracted from each AIF window across all 243 raw MS data. Once the taurine fragment peak was detected, corresponding precursor ions were identified from the same window and sample by aligning their chromatographic peaks. The precursor ions were further confirmed by their co-occurrences with the taurine fragment across samples. Once precursor ions were identified, the compound formulas and structures were predicted by interpreting high-resolution MS and MS/MS spectra, as mentioned above.

| Compound | Kd [1] [µM] | pericardial oedemata, Mean (zebrafish embryos) [%] | spinal curvature, Mean (zebrafish embryos) [%] | tail dysplasia, Mean (zebrafish embryos) [%] | Mortality (%) (zebrafish embryos) | BCF 0.5µM (zebrafish larvae [2]) [L/kg] | BCF 5µM (zebrafish larvae [2]) [L/kg] | concentration at 120 hpf [3] [µM] | Peak intensity of PFCA in zebrafish embryos directly exposed to the PFCA (zebrafish larvae [4]; 5μM through 120 hpf, single replicates, listed as PFBA) | Metabolite peak features detected (zebrafish larvae [4]; zebrafish larvae exposed to 5μM) | L-FABP ligand [1] | Half-life, biodegradation by soil microcosms (soil microcosms) [days] | BCF at 0.5μM compared with 5μM (zebrafish larvae [2]) | Taurine conjugates detected (zebrafish larvae [5]) | Profile of metabolites (%): Alcohol (zebrafish larvae [4]; zebrafish larvae, Figure 5B) [%] | Peak intensity: Alcohol (parent FTOH) (zebrafish larvae [4]; zebrafish larvae, single replicates, Figure 5A) |
| --- | --- | --- | --- | --- | --- | --- | --- | --- | --- | --- | --- | --- | --- | --- | --- | --- |
| O=C(O)C(F)(F)C(F)(F)C(F)(F)C(F)(F)C(F)(F)C(F)(F)C(F)(F)F [compound 74, Perfluorooctanoic acid] | 18.7 | 0.00 | 0.00 | 0.00 | 4.4 | 31.5419 | 17 ± 3.2 | 76 ± 1.6 |  |  |  |  |  |  |  |  |
| O=C(O)C(F)(F)C(F)(F)C(F)(F)F [compound 12, Perfluorobutanoic acid] |  | 1.11 | 0.00 | 0.00 | 4.4 | 2.559 | 1.0 ± 0.28 | 3.1 ± 0.88 | 3728507 and 3082077 and 5690847 |  |  |  |  |  |  |  |
| C[N+](C)(C)CCCNS(=O)(=O)C(F)(F)C(F)(F)C(F)(F)C(F)(F)C(F)(F)C(F)(F)C(F)(F)C(F)(F)F [compound 5, Perfluorooctanesulfonamido ammonium iodide] |  | 0.00 | 1.11 | 0.00 | 2.2 | 48.14 | 56 ± 16 |  |  | 74 | not identified as L-FABP ligands | 142 | comparable or even higher BCFs at 5μM |  |  |  |
| O=C(O)CCC(F)(F)C(F)(F)C(F)(F)C(F)(F)C(F)(F)F [compound 14, 2H,2H,3H,3H-Perfluorooctanoic acid] | 158 | 0.00 | 0.00 | 1.11 | 1.1 | 6.7299 | 8.7 ± 2.1 |  |  |  |  |  | comparable or even higher BCFs at 5μM | taurine conjugates were detected |  |  |
| OCCCCC(F)(F)C(F)(F)C(F)(F)C(F)(F)F [compound 40, 4:4 Fluorotelomer alcohol] |  | 0.00 | 0.00 | 0.00 | 0 |  |  |  |  |  |  |  |  | taurine conjugates were detected | 0.00 | 0 |

Reference: publication PMC8294803, “A Roadmap to the Structure-Related Metabolism Pathways of Per- and Polyfluoroalkyl Substances in the Early Life Stages of Zebrafish (Danio rerio)” (Environmental Health Perspectives, 2021)
